Some test systems named below: NCI/ADR-RES ovarian; RPMI-8226 leukemia; HS 578T breast; T-47D breast; RXF 393 renal; UACC-257 melanoma; EKVX NSCLC; DU-145 prostate; A549 NSCLC; LOX IMVI melanoma.
Assay in all cases: inhibition of tumour cell growth, NCI panel, 48 h

Structures are written as SMILES.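 How tested: cells in 96-well plates exposed to compound for 48 hours at five concentrations. GI50: concentration for 50% inhibition of growth. TGI marks complete inhibition of growth.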 Bounds are passed on as bounds.

Take `C=C1CC[C@@H](C(C)C)C[C@@H]2[C@H]([C@H](O)C[C@]2(C)O)[C@@]2(C)CC[C@@H]1O2`: the GI50 in the experiment on NCI/ADR-RES ovarian is 16.7 µM; with RPMI-8226 leukemia, 3.38 µM; with HS 578T breast, 31.5 µM; in the experiment on T-47D breast, 14.9 µM; with RXF 393 renal, 19.6 µM; with UACC-257 melanoma, 16.2 µM. The GI50 in the experiment on EKVX NSCLC was 28 µM; in the experiment with DU-145 prostate it was 15.8 µM; in the experiment on A549 NSCLC it was 17 µM; with LOX IMVI melanoma, 14.7 µM. The TGI in the experiment with NCI/ADR-RES ovarian came to 33.2 µM; in the experiment with RPMI-8226 leukemia, 17.2 µM; in the experiment on HS 578T breast, 82.7 µM; with T-47D breast it was 33.1 µM; in the experiment on RXF 393 renal, 34.1 µM; with UACC-257 melanoma, 31.3 µM. Also, the TGI was 55.9 µM in the experiment on EKVX NSCLC, 31.4 µM in the experiment with DU-145 prostate, 32.7 µM in the experiment with A549 NSCLC and 27.9 µM in the experiment with LOX IMVI melanoma.

On to `CC(C)C1=C2CCC3(C)C(CCC4C5C6OCC5(CCC6(C)C)CCC43C)C2(C)CC1` (stereo not given), for which the TGI in the experiment with NCI/ADR-RES ovarian is 39.6 µM; in the experiment on RPMI-8226 leukemia, 42.9 µM; with HS 578T breast, 51.3 µM; in the experiment on T-47D breast, 63 µM; with RXF 393 renal it was 48.8 µM; with UACC-257 melanoma, 36.1 µM. Moreover, the TGI in the experiment on EKVX NSCLC worked out at 39.2 µM; with DU-145 prostate it was 37.5 µM; in the experiment on A549 NSCLC it was 43.8 µM; in the experiment with LOX IMVI melanoma, 28.7 µM.

`O=[N+]([O-])c1ccc(CSCc2ccc(Cl)cc2)cc1`: the TGI in the experiment with NCI/ADR-RES ovarian, in the experiment with RPMI-8226 leukemia, in the experiment on HS 578T breast, in the experiment with T-47D breast, in the experiment on RXF 393 renal and in the experiment on UACC-257 melanoma was above 100 µM in each case. The TGI in the experiment on EKVX NSCLC, in the experiment with DU-145 prostate, in the experiment on A549 NSCLC and in the experiment with LOX IMVI melanoma was above 100 µM each time.

For `O=C(Nc1ccc(Cl)c(Cl)c1)Nc1ccccc1O`, the GI50 was 3.59 µM with NCI/ADR-RES ovarian; 3.37 µM with RPMI-8226 leukemia; 6.69 µM with HS 578T breast; 4.11 µM with T-47D breast; 15 µM in the experiment with RXF 393 renal; 6.6 µM in the experiment on UACC-257 melanoma. The GI50 in the experiment with EKVX NSCLC is 18.2 µM; with DU-145 prostate, 9.75 µM; in the experiment with A549 NSCLC, 6.23 µM; in the experiment on LOX IMVI melanoma, 4.58 µM. Moreover, the TGI in the experiment with NCI/ADR-RES ovarian came out at 28.5 µM; with RPMI-8226 leukemia, 32.3 µM; in the experiment with HS 578T breast it was 37.5 µM; in the experiment with T-47D breast, 43.6 µM; with RXF 393 renal, 35.6 µM; in the experiment with UACC-257 melanoma, 25 µM. Moreover, the TGI with EKVX NSCLC was 61.5 µM; in the experiment on DU-145 prostate, 31.1 µM; in the experiment with A549 NSCLC it was 22.5 µM; with LOX IMVI melanoma, 24.2 µM.

As for `CC1C(=O)OC2CC[N+]3([O-])CC=C(COC(=O)C(C)(O)C1(C)O)C23` (stereo not given), the TGI with NCI/ADR-RES ovarian, in the experiment on RPMI-8226 leukemia, in the experiment with HS 578T breast, with T-47D breast, with RXF 393 renal and in the experiment with UACC-257 melanoma was above 100 µM each time. Further, the TGI in the experiment with EKVX NSCLC, in the experiment on DU-145 prostate, with A549 NSCLC and with LOX IMVI melanoma was above 100 µM in each case.

The values are drawn from PubChem BioAssay (NCI).
